Experimental data reported in patent US20240383886A1, “Protein Tyrosine Phosphatase Degraders and Methods of Use Thereof” (CALICO LIFE SCIENCES LLC, priority 2019, published 2024).

Assays:
[1] = test system: PTPN2; assay: HiBiT-Degradation B16F10.4 PTPN2; assay type: cell-based; conditions: B16F10.4 cells, 24.0 hours
[2] = biological target: T1, PTPN2 (Homo sapiens, UniProt P17706); assay: HiBiT-Degradation 293T.109 PTPN2 (Nano-Glo HiBiT Lytic Assay); assay type: cell-based; conditions: 293T.109 (HiBiT-PTPN2) cells, 24.0 hours
T1 construct: expressed in transfected cells; host or cells: 293T (293T.109 HiBiT-PTPN2 line; parental 293T WT from ATCC)
T1 sequence (P17706 1-415): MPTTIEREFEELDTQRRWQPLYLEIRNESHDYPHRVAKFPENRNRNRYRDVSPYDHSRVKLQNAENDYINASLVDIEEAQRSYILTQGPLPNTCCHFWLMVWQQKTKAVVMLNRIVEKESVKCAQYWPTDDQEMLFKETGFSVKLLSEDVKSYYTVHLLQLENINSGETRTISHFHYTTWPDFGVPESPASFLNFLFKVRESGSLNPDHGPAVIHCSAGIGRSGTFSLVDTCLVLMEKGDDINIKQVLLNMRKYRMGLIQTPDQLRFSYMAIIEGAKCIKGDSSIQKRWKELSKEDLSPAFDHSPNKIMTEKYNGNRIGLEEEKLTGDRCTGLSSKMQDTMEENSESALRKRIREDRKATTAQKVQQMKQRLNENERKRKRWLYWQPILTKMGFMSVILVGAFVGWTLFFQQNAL
Method in brief: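 Luminescence from a lytic HiBiT read gave PTPN2 levels after 24 h compound exposure at 37° C. Compounds were tested at 11 half-log points from a 10 μM top concentration, in duplicate. The cells were 293T engineered with an N-terminal HiBiT–PTPN2 fusion, plated at 5000 per well, with untreated wells as negative control and no-reagent wells as positive control.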

## Cn1c(=O)n(C2CCC(=O)NC2=O)c2ccc(C3CCN(CCC(=O)N4CCC(c5ccc6cc(O)c(N7CC(=O)NS7(=O)=O)c(F)c6c5)C4)CC3)cc21 (stereo not drawn) [Example 72, 3-[5-[1-[3-[3-[8-fluoro-6-hydroxy-7-(1,1,4-trioxo-1,2,5-thiadiazolidin-2-yl)-2-naphthyl]pyrrolidin-1-yl]-3-oxo-propyl]-4-piperidyl]-3-methyl-2-oxo-benzimidazol-1-yl]piperidine-2,6-dione]
[1]
  DC50: 0.05 to 0.2 µM
[2]
  DC50: 0.01 to 0.05 µM

## Cn1c(=O)n(C2CCC(=O)NC2=O)c2ccc(C3CCN(C(=O)Cn4cc(-c5ccc6c(F)c(N7CC(=O)NS7(=O)=O)c(O)cc6c5)cn4)CC3(F)F)cc21 (stereo not drawn) [Example 73, 3-[5-[3,3-difluoro-1-[2-[4-[5-fluoro-7-hydroxy-6-(1,1,4-trioxo-1,2,5-thiadiazolidin-2-yl)-2-naphthyl]pyrazol-1-yl]acetyl]-4-piperidyl]-3-methyl-2-oxo-benzimidazol-1-yl]piperidine-2,6-dione]
[1]
  DC50: 0.01 to 0.05 µM
[2]
  DC50: 0.01 to 0.05 µM

## Cn1c(=O)n(C2CCC(=O)NC2=O)c2ccc(C3CCN(C(=O)Cn4cc(-c5ccc6c(F)c(N7CC(=O)NS7(=O)=O)c(O)cc6c5)cn4)CC3)cc21 (stereo not drawn) [Example 74, 3-[5-[1-[2-[4-[5-fluoro-7-hydroxy-6-(1,1,4-trioxo-1,2,5-thiadiazolidin-2-yl)-2-naphthyl]pyrazol-1-yl]acetyl]-4-piperidyl]-3-methyl-2-oxo-benzimidazol-1-yl]piperidine-2,6-dione]
[1]
  DC50: 0.05 to 0.2 µM
[2]
  DC50: < 0.01 µM

## Cn1c(=O)n(C2CCC(=O)NC2=O)c2ccc(-c3ccc(CC(=O)Nc4ccc5c(F)c(N6CC(=O)NS6(=O)=O)c(O)cc5c4)cc3)cc21 (stereo not drawn) [Example 77, 2-[4-[1-(2,6-dioxo-3-piperidyl)-3-methyl-2-oxo-benzimidazol-5-yl]phenyl]-N-[5-fluoro-7-hydroxy-6-(1,1,4-trioxo-1,2,5-thiadiazolidin-2-yl)-2-naphthyl]acetamide]
[1]
  DC50: 0.01 to 0.05 µM
[2]
  DC50: 0.01 to 0.05 µM

## Cn1c(=O)n(C2CCC(=O)NC2=O)c2ccc(N3CCC(CC(=O)Nc4ccc5c(F)c(N6CC(=O)NS6(=O)=O)c(O)cc5c4)CC3)cc21 (stereo not drawn) [Example 78, N-(6-(1,1-dioxido-4-oxo-1,2,5-thiadiazolidin-2-yl)-5-fluoro-7-hydroxynaphthalen-2-yl)-2-(1-(1-(2,6-dioxopiperidin-3-yl)-3-methyl-2-oxo-2,3-dihydro-1H-benzo[d]imidazol-5-yl)piperidin-4-yl)acetamide]
[1]
  DC50: 0.01 to 0.05 µM
[2]
  DC50: 0.01 to 0.05 µM

## Cn1nc(C2CCC(=O)NC2=O)c2ccc(C3CCN(C(=O)Cn4cc(-c5ccc6c(F)c(N7CC(=O)NS7(=O)=O)c(O)cc6c5)cn4)CC3)cc21 (stereo not drawn) [Example 79, 3-[6-[1-[2-[4-[5-fluoro-7-hydroxy-6-(1,1,4-trioxo-1,2,5-thiadiazolidin-2-yl)-2-naphthyl]pyrazol-1-yl]acetyl]-4-piperidyl]-1-methyl-indazol-3-yl]piperidine-2,6-dione]
[1]
  DC50: 0.2 to 1 µM
[2]
  DC50: 0.01 to 0.05 µM

## Cn1c(=O)n(C2CCC(=O)NC2=O)c2ccc(C3CCN(CC(=O)N4CC(Oc5ccc6cc(O)c(N7CC(=O)NS7(=O)=O)c(F)c6c5)C4)CC3(F)F)cc21 (stereo not drawn) [Example 80, 3-[5-[3,3-difluoro-1-[2-[3-[[8-fluoro-6-hydroxy-7-(1,1,4-trioxo-1,2,5-thiadiazolidin-2-yl)-2-naphthyl]oxy]azetidin-1-yl]-2-oxo-ethyl]-4-piperidyl]-3-methyl-2-oxo-benzimidazol-1-yl]piperidine-2,6-dione]
[1]
  DC50: 0.05 to 0.2 µM
[2]
  DC50: 0.01 to 0.05 µM

## Cn1c(=O)n(C2CCC(=O)NC2=O)c2ccc(N3CCC(O)(CC(=O)Nc4ccc5c(F)c(N6CC(=O)NS6(=O)=O)c(O)cc5c4)CC3)cc21 (stereo not drawn) [Example 82, 2-[1-[1-(2,6-dioxo-3-piperidyl)-3-methyl-2-oxo-benzimidazol-5-yl]-4-hydroxy-4-piperidyl]-N-[5-fluoro-7-hydroxy-6-(1,1,4-trioxo-1,2,5-thiadiazolidin-2-yl)-2-naphthyl]acetamide]
[1]
  DC50: 0.2 to 1 µM
[2]
  DC50: < 0.01 µM

## Cn1nc(C2CCC(=O)NC2=O)c2ccc(N3CCC(O)(CC(=O)Nc4ccc5c(F)c(N6CC(=O)NS6(=O)=O)c(O)cc5c4)CC3)cc21 (stereo not drawn) [Example 83, 2-[1-[3-(2,6-dioxo-3-piperidyl)-1-methyl-indazol-6-yl]-4-hydroxy-4-piperidyl]-N-[5-fluoro-7-hydroxy-6-(1,1,4-trioxo-1,2,5-thiadiazolidin-2-yl)-2-naphthyl]acetamide]
[1]
  DC50: 0.01 to 0.05 µM
[2]
  DC50: < 0.01 µM

## Cn1c(=O)n(C2CCC(=O)NC2=O)c2ccc(N3CCC(OCC(=O)Nc4ccc5c(F)c(N6CC(=O)NS6(=O)=O)c(O)cc5c4)CC3)cc21 (stereo not drawn) [Example 84, 2-[[1-[1-(2,6-dioxo-3-piperidyl)-3-methyl-2-oxo-benzimidazol-5-yl]-4-piperidyl]oxy]-N-[5-fluoro-7-hydroxy-6-(1,1,4-trioxo-1,2,5-thiadiazolidin-2-yl)-2-naphthyl]acetamide]
[1]
  DC50: 0.05 to 0.2 µM
[2]
  DC50: 0.01 to 0.05 µM

## CC(C)n1c(=O)n(C2CCC(=O)NC2=O)c2ccc(C3CCN(CC(=O)NCCOc4ccc5cc(O)c(N6CC(=O)NS6(=O)=O)c(F)c5c4)CC3)cc21 (stereo not drawn) [Example 85, 2-[4-[1-(2,6-dioxo-3-piperidyl)-3-isopropyl-2-oxo-benzimidazol-5-yl]-1-piperidyl]-N-[2-[[8-fluoro-6-hydroxy-7-(1,1,4-trioxo-1,2,5-thiadiazolidin-2-yl)-2-naphthyl]oxy]ethyl]acetamide]
[1]
  DC50: 0.2 to 1 µM
[2]
  DC50: 0.05 to 0.2 µM

## Cn1c(=O)n(C2CCC(=O)NC2=O)c2ccc(C3CCN(C4CC(C(=O)Nc5ccc6c(F)c(N7CC(=O)NS7(=O)=O)c(O)cc6c5)C4)CC3)cc21 (stereo not drawn) [Example 86, 3-[4-[1-(2,6-dioxo-3-piperidyl)-3-methyl-2-oxo-benzimidazol-5-yl]-1-piperidyl]-N-[5-fluoro-7-hydroxy-6-(1,1,4-trioxo-1,2,5-thiadiazolidin-2-yl)-2-naphthyl]cyclobutanecarboxamide]
[1]
  DC50: 0.05 to 0.2 µM
[2]
  DC50: 0.01 to 0.05 µM

## Cn1c(=O)n(C2CCC(=O)NC2=O)c2ccc(C3CCN(C(=O)C(=O)Nc4ccc5c(F)c(N6CC(=O)NS6(=O)=O)c(O)cc5c4)CC3)cc21 (stereo not drawn) [Example 87, 2-[4-[1-(2,6-dioxo-3-piperidyl)-3-methyl-2-oxo-benzimidazol-5-yl]-1-piperidyl]-N-[5-fluoro-7-hydroxy-6-(1,1,4-trioxo-1,2,5-thiadiazolidin-2-yl)-2-naphthyl]-2-oxo-acetamide]
[1]
  DC50: 0.01 to 0.05 µM
[2]
  DC50: 0.01 to 0.05 µM

## Cn1c(=O)n(C2CCC(=O)NC2=O)c2ccc(C3CCN(CC(=O)N4CC=C(c5ccc6cc(O)c(N7CC(=O)NS7(=O)=O)c(F)c6c5)C4)CC3)cc21 (stereo not drawn) [Example 88, 3-[5-[1-[2-[3-[8-fluoro-6-hydroxy-7-(1,1,4-trioxo-1,2,5-thiadiazolidin-2-yl)-2-naphthyl]-2,5-dihydropyrrol-1-yl]-2-oxo-ethyl]-4-piperidyl]-3-methyl-2-oxo-benzimidazol-1-yl]piperidine-2,6-dione]
[1]
  DC50: 0.05 to 0.2 µM
[2]
  DC50: 0.05 to 0.2 µM

## Cn1c(=O)n(C2CCC(=O)NC2=O)c2ccc(C3CCN(CCC(=O)N4CC=C(c5ccc6cc(O)c(N7CC(=O)NS7(=O)=O)c(F)c6c5)C4)CC3)cc21 (stereo not drawn) [Example 89, 3-[5-[1-[3-[3-[8-fluoro-6-hydroxy-7-(1,1,4-trioxo-1,2,5-thiadiazolidin-2-yl)-2-naphthyl]-2,5-dihydropyrrol-1-yl]-3-oxo-propyl]-4-piperidyl]-3-methyl-2-oxo-benzimidazol-1-yl]piperidine-2,6-dione]
[1]
  DC50: 0.05 to 0.2 µM
[2]
  DC50: 0.05 to 0.2 µM

## Cn1c(=O)n(C2CCC(=O)NC2=O)c2ccc(C3CCN(CC(=O)N4CCC(c5ccc6cc(O)c(N7CC(=O)NS7(=O)=O)c(F)c6c5)C4)CC3)cc21 (stereo not drawn) [Example 90, 3-[5-[1-[2-[3-[8-fluoro-6-hydroxy-7-(1,1,4-trioxo-1,2,5-thiadiazolidin-2-yl)-2-naphthyl]pyrrolidin-1-yl]-2-oxo-ethyl]-4-piperidyl]-3-methyl-2-oxo-benzimidazol-1-yl]piperidine-2,6-dione]
[1]
  DC50: 0.2 to 1 µM
[2]
  DC50: 0.05 to 0.2 µM

## Cn1c(=O)n(C2CCC(=O)NC2=O)c2ccc(C3CCN(CCCn4cc(-c5ccc6cc(O)c(N7CC(=O)NS7(=O)=O)c(F)c6c5)cn4)CC3)cc21 (stereo not drawn) [Example 91, 3-[5-[1-[3-[4-[8-fluoro-6-hydroxy-7-(1,1,4-trioxo-1,2,5-thiadiazolidin-2-yl)-2-naphthyl]pyrazol-1-yl]propyl]-4-piperidyl]-3-methyl-2-oxo-benzimidazol-1-yl]piperidine-2,6-dione]
[1]
  DC50: 0.05 to 0.2 µM
[2]
  DC50: 0.01 to 0.05 µM

## Cn1c(=O)n([C@@H]2CCC(=O)NC2=O)c2ccc(C3CCN(CC(=O)NCCOc4ccc5cc(O)c(N6CC(=O)NS6(=O)=O)c(F)c5c4)CC3)cc21 [Example 92, 2-[4-[1-[(3R)-2,6-dioxo-3-piperidyl]-3-methyl-2-oxo-benzimidazol-5-yl]-1-piperidyl]-N-[2-[[8-fluoro-6-hydroxy-7-(1,1,4-trioxo-1,2,5-thiadiazolidin-2-yl)-2-naphthyl]oxy]ethyl]acetamide]
[1]
  DC50: 0.2 to 1 µM
[2]
  DC50: 0.05 to 0.2 µM
